In patent US8952037B2, “Heteroaryloxycarbocyclyl compounds as PDE10 inhibitors” (Amgen Inc., priority 2010, dated 2015):

Target: PDE10
Assay: MPDE10A7 enzyme inhibition, IMAP TR-FRET assay
Assay type: biochemical
Details: read-out: PDE10 IC50
Method: MPDE10A7 Enzyme Activity and Inhibition
Enzyme Activity. An IMAP TR-FRET assay was used to analyze the enzyme activity (Molecular Devices Corp., Sunnyvale Calif.). 5 μL, of serial diluted PDE10A (BPS Bioscience, San Diego, Calif.) or tissue homogenate was incubated with equal volumes of diluted fluorescein labeled cAMP or cGMP for 60 min in 384-well polystyrene assay plates (Corning, Corning, N.Y.) at room temperature. After incubation, the reaction was stopped by adding 60 μL, of diluted binding reagents and was incubated for 3 hours to overnight at room temperature. The plates were read on an Envision (Perkin Elmer, Waltham, Mass.) for time resolved fluorescence resonance energy transfer. The data were analyzed with GraphPad Prism (La Jolla, Calif.).
Enzyme Inhibition. To check the inhibition profile, 5 μL, of serial diluted compounds were incubated with 5 μL, of diluted PDE10 enzyme (BPS Bioscience, San Diego, Calif.) or tissue homogenate in a 384-well polystyrene assay plate (Corning, Corning, N.Y.) for 30 min at room temperature. After incubation, 10 μL, of diluted fluorescein labeled cAMP or cGMP substrate were added and incubated for 60 min at room temperature. The reaction was stopped by adding 60 μL of diluted binding reagents and plates were read on an Envision (Perkin Elmer, Waltham, Mass.) for time resolved fluorescence resonance energy transfer. The data were analyzed with GraphPad Prism (La Jolla, Calif.).

| IC50 [nM] | Molecule |
| --- | --- |
| 0.758 | Fc1ccc(C2CCOCC2)c(OC2CC(Nc3nc4ccccc4s3)C2)n1 [Example 105, N-((1S,3S)-3-((6-fluoro-3-(tetrahydro-2H-pyran-4-yl)pyridin-2-yl)oxy)cyclobutyl)benzo[d]thiazol-2-amine] |
| 590 | N#Cc1ccc(N[C@H]2C[C@@H](Oc3ncccc3C3CCOCC3)C2)nc1 [Example 106, 6-(((1S,3S)-3-((3-(tetrahydro-2H-pyran-4-yl)pyridin-2-yl)oxy)cyclobutyl)amino)nicotinonitrile] |
| 865 | N#Cc1ccc(N[C@H]2C[C@H](Oc3ncccc3C3CCOCC3)C2)nc1 [Example 107, 6-(((1R,3R)-3-((3-(tetrahydro-2H-pyran-4-yl)pyridin-2-yl)oxy)cyclobutyl)amino)nicotinonitrile] |
| 436 | FC(F)(F)c1ccc(N[C@H]2C[C@H](Oc3ncccc3C3CCOCC3)C2)nc1 [Example 108, N-((1R,3R)-3-((3-(tetrahydro-2H-pyran-4-yl)pyridin-2-yl)oxy)cyclobutyl)-5-(trifluoromethyl)pyridin-2-amine] |
| 106 | FC(F)(F)c1ccc(N[C@H]2C[C@@H](Oc3ncccc3C3CCOCC3)C2)nc1 [Example 109, N-((1S,3S)-3-((3-(tetrahydro-2H-pyran-4-yl)pyridin-2-yl)oxy)cyclobutyl)-5-(trifluoromethyl)pyridin-2-amine] |
| 26.2 | Clc1ccc(N[C@H]2C[C@@H](Oc3ncccc3C3CCOCC3)C2)nc1 [Example 110, 5-chloro-N-((1S,3S)-3-((3-(tetrahydro-2H-pyran-4-yl)pyridin-2-yl)oxy)cyclobutyl)pyridin-2-amine] |
| 83.7 | Clc1ccc(N[C@H]2C[C@H](Oc3ncccc3C3CCOCC3)C2)nc1 [Example 111, 5-chloro-N-((1R,3R)-3-((3-(tetrahydro-2H-pyran-4-yl)pyridin-2-yl)oxy)cyclobutyl)pyridin-2-amine] |
| 12400 | CC(=O)N1CCC(c2cccnc2OC2CC(NS(=O)(=O)c3ccc(C)cc3)C2)CC1 [Example 114, N-((1S,3S)-3-((3-(1-acetylpiperidin-4-yl)pyridin-2-yl)oxy)cyclobutyl)-4-methylbenzenesulfonamide] |
| 916 | CC(=O)N1CCC(c2cccnc2OC2CC(NS(=O)(=O)c3ccc(C)cc3)C2)CC1 [Example 115, N-((1R,3R)-3-((3-(1-acetylpiperidin-4-yl)pyridin-2-yl)oxy)cyclobutyl)-4-methylbenzenesulfonamide] |
| 959 | FC(F)(F)c1ccc(NC2CC(Oc3ncncc3C3CCOCC3)C2)nc1 [Example 116, N-((1R,3R)-3-((5-(tetrahydro-2H-pyran-4-yl)pyrimidin-4-yl)oxy)cyclobutyl)-5-(trifluoromethyl)pyridin-2-amine] |
| 321 | FC(F)(F)c1ccc(NC2CC(Oc3ncncc3C3CCOCC3)C2)nc1 [Example 117, N-((1S,3S)-3-((5-(tetrahydro-2H-pyran-4-yl)pyrimidin-4-yl)oxy)cyclobutyl)-5-(trifluoromethyl)pyridin-2-amine] |

More lines, now with the values behind:

| Molecule | IC50 [nM] |
| --- | --- |
| O=C(CO)N1CCC(c2nccnc2OC2CC(Nc3nc4ccccc4s3)C2)CC1 [Example 73, 1-(4-(3-((1S,3S)-3-(benzo[d]thiazol-2-ylamino)cyclobutoxy)pyrazin-2-yl)piperidin-1-yl)-2-hydroxyethanone] | 4.81 |
| CN1CCC(c2nccnc2O[C@H]2C[C@@H](Nc3nc4ccccc4s3)C2)CC1 [Example 74, N-((1S,3S)-3-((3-(1-methylpiperidin-4-yl)pyrazin-2-yl)oxy)cyclobutyl)benzo[d]thiazol-2-amine] | 49.8 |
| F[C@H]1CCN(c2nccnc2OC2CC(Nc3nc4ccccc4s3)C2)C1 (stereo partly drawn) [Example 97, N-((1S,3S)-3-((3-(3-fluoropyrrolidin-1-yl)pyrazin-2-yl)oxy)cyclobutyl)benzo[d]thiazol-2-amine] | 3.35 |
| O=C1CCN(c2nccnc2OC2CC(Nc3nc4ccccc4s3)C2)CC1 [Example 98, 1-(3-((1S,3S)-3-(benzo[d]thiazol-2-ylamino)cyclobutoxy)pyrazin-2-yl)piperidin-4-one] | 21.1 |
| FC1(F)CCN(c2nccnc2OC2CC(Nc3nc4ccccc4s3)C2)CC1 [Example 99, N-((1S,3S)-3-((3-(4,4-difluoropiperidin-1-yl)pyrazin-2-yl)oxy)cyclobutyl)benzo[d]thiazol-2-amine] | 17.7 |
| CC(O)C1CCN(c2nccnc2OC2CC(Nc3nc4ccccc4s3)C2)CC1 [Example 102, 1-(1-(3-((1S,3S)-3-(benzo[d]thiazol-2-ylamino)cyclobutoxy)pyrazin-2-yl)piperidin-4-yl)ethanol] | 10.8 |
| TRANS-BENZOTHIAZOL-2-YL-{3-[5-FLUORO-3-(TETRAHYDRO-PYRAN-4-YL)-PYRIDIN-2-YL]-CYCLOBUTYL}-AMINE [Example 5B] | 0.1 |

Same assay, conditions: separated enantiomers; absolute stereochemistry not determined, value can be for either enantiomer of the pair; read-out: IC50

| Molecule | IC50 [nM] |
| --- | --- |
| OC[C@H]1CCCN(c2nccnc2OC2CC(Nc3nc4ccccc4s3)C2)C1 (stereo partly drawn) [Example 91, ((S)-1-(3-((1S,3R)-3-(benzo[d]thiazol-2-ylamino)cyclobutoxy)pyrazin-2-yl)piperidin-3-yl)methanol] | 26 |
| OC[C@@H]1CCCN(c2nccnc2OC2CC(Nc3nc4ccccc4s3)C2)C1 (stereo partly drawn) [Example 92, ((R)-1-(3-((1S,3S)-3-(benzo[d]thiazol-2-ylamino)cyclobutoxy)pyrazin-2-yl)piperidin-3-yl)methanol] | 2.81 |
| C[C@H]1CCN(c2nccnc2OC2CC(Nc3nc4ccccc4s3)C2)C1 (stereo partly drawn) [Example 93, N-((1S,3S)-3-((3-((R)-3-methylpyrrolidin-1-yl)pyrazin-2-yl)oxy)cyclobutyl)benzo[d]thiazol-2-amine] | 3.24 |
| C[C@H]1CCN(c2nccnc2OC2CC(Nc3nc4ccccc4s3)C2)C1 (stereo partly drawn) [Example 94, N-((1R,3S)-3-((3-((S)-3-methylpyrrolidin-1-yl)pyrazin-2-yl)oxy)cyclobutyl)benzo[d]thiazol-2-amine] | 8.02 |
| N#C[C@@H]1CCN(c2nccnc2OC2CC(Nc3nc4ccccc4s3)C2)C1 (stereo partly drawn) [Example 95, (R)-1-(3-((1S,3S)-3-(benzo[d]thiazol-2-ylamino)cyclobutoxy)pyrazin-2-yl)pyrrolidine-3-carbonitrile] | 0.728 |
| N#C[C@H]1CCN(c2nccnc2OC2CC(Nc3nc4ccccc4s3)C2)C1 (stereo partly drawn) [Example 96, (S)-1-(3-((1S,3R)-3-(benzo[d]thiazol-2-ylamino)cyclobutoxy)pyrazin-2-yl)pyrrolidine-3-carbonitrile] | 5.27 |
